Active and inactive are the calls of the source. The rule behind the calls is not given here.

Experiment [1] has as its target T1, Beta-secretase 1 (Homo sapiens, UniProt P56817).
Experiment [2] deals with T1, Beta-secretase 1. This is another data set of the same source.
The target of experiment [3] is T2, Beta-secretase 2 (Homo sapiens) (UniProt Q9Y5Z0).
T2 sequence (whole entry): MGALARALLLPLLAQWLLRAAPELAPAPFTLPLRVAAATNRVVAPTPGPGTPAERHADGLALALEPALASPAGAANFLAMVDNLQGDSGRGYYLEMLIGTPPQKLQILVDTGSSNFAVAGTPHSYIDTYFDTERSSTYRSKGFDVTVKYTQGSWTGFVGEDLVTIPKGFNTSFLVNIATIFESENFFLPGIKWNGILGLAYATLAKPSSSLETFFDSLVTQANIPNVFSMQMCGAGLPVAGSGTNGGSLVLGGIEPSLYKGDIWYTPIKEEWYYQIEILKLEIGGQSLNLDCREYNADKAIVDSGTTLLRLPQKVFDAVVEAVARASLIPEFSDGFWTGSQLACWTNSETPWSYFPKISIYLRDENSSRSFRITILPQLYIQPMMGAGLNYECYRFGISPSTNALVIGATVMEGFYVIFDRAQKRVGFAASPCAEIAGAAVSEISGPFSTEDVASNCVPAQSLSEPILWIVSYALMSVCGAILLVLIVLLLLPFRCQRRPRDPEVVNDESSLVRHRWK
Briefly: (§1) Inhibition of BACE2.

Another experiment concerns the target T3, Renin (Homo sapiens, UniProt P00797).
T3 sequence (P00797 whole entry): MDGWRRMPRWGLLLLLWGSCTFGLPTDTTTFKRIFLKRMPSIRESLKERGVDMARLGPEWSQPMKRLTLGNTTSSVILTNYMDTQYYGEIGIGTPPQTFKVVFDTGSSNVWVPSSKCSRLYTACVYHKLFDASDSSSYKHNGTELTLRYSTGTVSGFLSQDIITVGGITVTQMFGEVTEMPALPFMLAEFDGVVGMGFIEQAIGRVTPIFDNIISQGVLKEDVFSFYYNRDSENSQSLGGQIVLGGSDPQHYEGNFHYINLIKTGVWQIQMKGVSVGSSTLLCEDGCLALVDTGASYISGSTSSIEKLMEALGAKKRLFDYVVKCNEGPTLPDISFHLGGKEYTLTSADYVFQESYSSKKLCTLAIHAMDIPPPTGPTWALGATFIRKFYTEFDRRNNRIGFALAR
The experiment in a line: Inhibition of renin.

A further experiment deals with T4, Beta-secretase 2 (Homo sapiens, UniProt Q9Y5Z0).
T4 sequence (Q9Y5Z0 whole entry): T2 sequence (whole entry)
The experiment is described as §1.

T1 sequence (P56817 whole entry): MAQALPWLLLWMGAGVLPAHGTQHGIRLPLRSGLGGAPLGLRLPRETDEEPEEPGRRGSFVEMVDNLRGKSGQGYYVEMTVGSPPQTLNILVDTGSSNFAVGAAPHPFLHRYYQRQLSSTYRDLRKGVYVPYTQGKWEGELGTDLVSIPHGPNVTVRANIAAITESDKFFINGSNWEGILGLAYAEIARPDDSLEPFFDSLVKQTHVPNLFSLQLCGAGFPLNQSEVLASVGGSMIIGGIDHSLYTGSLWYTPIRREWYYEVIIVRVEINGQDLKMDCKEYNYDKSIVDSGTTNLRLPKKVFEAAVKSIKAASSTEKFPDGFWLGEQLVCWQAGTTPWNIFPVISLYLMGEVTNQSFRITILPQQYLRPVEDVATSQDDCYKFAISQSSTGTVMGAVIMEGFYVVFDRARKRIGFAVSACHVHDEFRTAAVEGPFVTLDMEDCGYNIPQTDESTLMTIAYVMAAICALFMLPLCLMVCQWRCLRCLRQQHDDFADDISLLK

As to `C[C@@H](NC(=O)c1cc(C(=O)N[C@@H](Cc2ccccc2)[C@H](O)CNC(C)(C)C)cc(N(C)S(C)(=O)=O)c1)c1ccc(F)cc1`, the results for the half-maximal inhibitory concentration (IC50) at Beta-secretase 1 [1], at Beta-secretase 1 [2] and at Renin were 2120 nM, 15 nM and above 50000 nM, respectively. Further, the result in experiment [3] was inactive.
In the case of `C[C@@H](NC(=O)c1cc(NS(C)(=O)=O)cc(C(=O)N[C@@H](Cc2ccccc2)C(O)CNC2CC2)c1)c1ccc(F)cc1` (some centres undefined), the IC50 was 1180 nM against Beta-secretase 1 [1], 63 nM on Beta-secretase 1 [2], 210 nM against Beta-secretase 2 and above 50000 nM at Renin.
For `CCNC[C@@H](O)[C@H](Cc1ccccc1)NC(=O)c1cc(C(=O)N[C@H](C)c2ccc(F)cc2)cc(N(C)S(C)(=O)=O)c1` the same measures were 396 nM, 15 nM, 260 nM and above 50000 nM.
In turn, `C[C@@H](NC(=O)c1cc(C(=O)N[C@@H](Cc2ccccc2)C(O)CNC2CC2)cc(N(C)S(C)(=O)=O)c1)c1ccccc1` (some centres undefined) displayed a 50% inhibitory concentration (IC50) on Renin above 50000 nM.
For the compound `C[C@@H](NC(=O)c1cc(C(=O)N[C@@H](Cc2ccccc2)[C@H](O)CNC2CC2)cc(N(C)S(C)(=O)=O)c1)c1ccc(F)cc1`, the IC50 was 19 nM against Beta-secretase 1 [1], 10 nM against Beta-secretase 1 [2], 69 nM at Beta-secretase 2 and above 10000 nM against Renin.
For the compound `C[C@@H](NC(=O)c1cc(C(=O)N[C@@H](Cc2ccccc2)[C@H](O)CNC2CC2)cc(N(C)S(=O)(=O)N(C)C)c1)c1ccccc1`, the IC50 is 9 nM against Beta-secretase 1 [1], 14 nM on Beta-secretase 1 [2], 110 nM on Beta-secretase 2 and above 50000 nM on Renin.
For `C[C@@H](NC(=O)c1cc(C(=O)N[C@@H](Cc2ccccc2)[C@H](O)CN)cc(N(C)S(C)(=O)=O)c1)c1ccc(F)cc1` the same measures were 5390 nM, 23 nM, 443 nM and above 50000 nM.
Regarding `CC(C)S(=O)(=O)N(C)c1cc(C(=O)N[C@@H](Cc2ccccc2)[C@H](O)CNC2CC2)cc(C(=O)N[C@H](C)c2ccccc2)c1`, the IC50 against Beta-secretase 1 [1] was 25 nM; against Beta-secretase 1 [2] it was 41 nM; against Beta-secretase 2 it was 360 nM; against Renin, above 50000 nM.

Broadly, the IC50 is the concentration needed to halve the response being measured.

The values above are taken from ChEMBL document CHEMBL1149268, “Structure-based design of potent and selective cell-permeable inhibitors of human beta-secretase (BACE-1)” (J Med Chem, 2004).
